Here are results for 1 substance from US20190071490A1, “Preventing Post-Ictal Headaches” (Beth Israel Deaconess Medical Center, Inc., priority 2017, published 2019).

This test concerns skin blood flow after saphenous nerve stimulation (CGRP release). As to the kind of experiment: Skin vasodilatation induced by stimulation of rat saphenous nerve. It is filed as in vivo. The following applies: 400 nmol/kg i.v., 3-5 minutes before stimulation, vs control. As to the method: To test antagonist activity of anti-CGRP antibodies, effect of the antibodies on skin vasodilatation by stimulation of rat saphenous nerve was tested using a rat model described previously. Escott et al., Br. J. Pharmacol. 110:772-776, 1993. In this rat model, electrical stimulation of saphenous nerve induces release of CGRP from nerve endings, resulting in an increase in skin blood flow. Blood flow in the foot skin of male Sprague Dawley rats (170-300 g, from Charles River Hollister) was measured after saphenous nerve stimulation. Rats were maintained under anesthesia with 2% isoflurane. Bretylium tosylate (30 mg/kg, administered i.v.) was given at the beginning of the experiment to minimize vasoconstriction due to the concomitant stimulation of sympathetic fibers of the saphenous nerve. […]
For experiments shown in FIGS. 2A and 2B, antibody 4901 (25 mg/kg), antibody 7D11 (25 mg/kg), or vehicle control (PBS with 0.01% Tween 20) was administered intraperitoneally (IP) 72 hours before the electrical pulse stimulation. […] Skin blood flow, measured as blood cell flux, was monitored with a laser Doppler flow meter. […]
For experiments shown in FIGS. 4A and 4B, saphenous nerve was exposed surgically before antibody administration. […] Skin blood flow, measured as blood cell flux, was monitored with a laser Doppler flow meter. […]

On to “CGRP 8-37: Positive control compound CGRP 8-37 (vasodilatation antagonist)”, for which the “blood flow increase stimulated by electronic pulses on saphenous nerve (AUC of blood cell flux)” value is on record as “inhibited”.
